We go through ten molecules from patent US6730670B2, “7-phenyl-benzo[b]thiophen amide derivatives” (Hoffmann-La Roche Inc., priority 2001, dated 2004).

This assay concerns the target T1, human adenosine A2A receptor (Homo sapiens, UniProt P29274).
T1 construct: expressed in transfected cells; host or cells: CHO cells, Semliki Forest virus expression system; washed membrane preparation
Kind of assay: [3H]-SCH-58261 binding assay, human adenosine A2A receptor (CHO cell membranes, SPA). The settings on record: [3H]-SCH-58261 1 nM; membranes of CHO cells expressing human A2A receptor; Ki from IC50 by Cheng-Prussoff equation; read-out: hA2 (pKi) (converted). Here is the method: Human Adenosine A2A Receptor
The human adenosine A2A receptor was recombinantly expressed in chinese hamster ovary (CHO) cells using the semliki forest virus expression system. Cells were harvested, washed twice by centrifugation, homogenized and again washed by centrifugation. The final washed membrane pellet was suspended in a Tris (50 mM) buffer containing 120 mM NaCl, 5 mM KCl, 2 mM CaCl2 and 10 mM MgCl2 (pH 7.4) (buffer A). The [^3H]-SCH-58261 (Dionisotti et al., 1997, Br J Pharmacol 121, 353; 1 nM) binding assay was carried out in 96-well plates in the presence of 2.5 μg of membrane protein, 0.5 mg of Ysi-poly-1-lysine SPA beads and 0.1 U adenosine deaminase in a final volume of 200 μl of buffer A. Non-specific binding was defined using xanthine amine congener (XAC; 2 μM). Compounds were tested at 10 concentrations from 10 μM-0.3 nM. All assays were conducted in duplicate and repeated at least two times. Assay plates were incubated for 1 hour at room temperature before centricentrifugation and then bound ligand determined of test compound using a Packard Topcount scintillation counter. IC50 values, the concentration where 50% of the […] binding is displaced, were calculated using a non-linear curve fitting program and Ki values calculated using the Cheng-Prussoff equation.
Preferred compounds of formula I have a pKi>6.4.

T1 sequence (P29274 whole entry): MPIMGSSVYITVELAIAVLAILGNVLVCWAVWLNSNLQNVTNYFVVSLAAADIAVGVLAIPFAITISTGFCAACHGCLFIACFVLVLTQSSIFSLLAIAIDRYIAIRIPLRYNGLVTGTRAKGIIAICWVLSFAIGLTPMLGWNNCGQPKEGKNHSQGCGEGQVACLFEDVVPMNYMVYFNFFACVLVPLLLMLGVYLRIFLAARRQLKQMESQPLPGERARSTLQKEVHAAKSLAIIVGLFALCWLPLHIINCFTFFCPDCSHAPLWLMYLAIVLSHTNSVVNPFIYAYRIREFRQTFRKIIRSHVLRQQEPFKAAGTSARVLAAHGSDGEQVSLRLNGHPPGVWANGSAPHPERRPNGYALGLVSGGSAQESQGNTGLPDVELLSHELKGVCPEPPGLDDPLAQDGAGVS

In the case of `COc1ccc(-c2ccccc2)c2sc(NC(=O)N3CCSCC3)cc12` [Example 1, Thiomorpholine-4-carboxylic acid (4-methoxy-7-phenyl-benzo[b]thiophen-2-yl)-amide], the Ki was 155 nM.
As for `COc1ccc(-c2ccccc2)c2sc(NC(=O)N3CCOCC3)cc12` [Example 2, Morpholine-4-carboxylic acid (4-methoxy-7-phenyl-benzo[b]thiophen-2-yl)-amide], the Ki was 263 nM.
Take `COc1ccc(-c2ccccc2)c2sc(NC(=O)N3CCCCC3)cc12` [Example 3, Piperidine-1-carboxylic acid (4-methoxy-7-phenyl-benzo[b]thiophen-2-yl)-amide]: the Ki is 257 nM.
In the case of `COc1ccc(-c2ccccc2)c2sc(NC(=O)N3CCC(O)CC3)cc12` [Example 4, 4-Hydroxy-piperidine-1-carboxylic acid (4-methoxy-7-phenyl-benzo[b]thiophen-2-yl)-amide] it was 126 nM.
Turning to `COc1ccc(-c2ccccc2)c2sc(NC(=O)N3CCC(OC)CC3)cc12` [Example 5, 4-Methoxy-piperidine-1-carboxylic acid (4-methoxy-7-phenyl-benzo[b]thiophen-2-yl)-amide], the Ki is 347 nM.
In the case of `COc1ccc(-c2ccccc2)c2sc(NC(=O)N3CCC(CO)CC3)cc12` [Example 6, 4-Hydroxymethyl-piperidine-1-carboxylic acid (4-methoxy-7-phenyl-benzo[b]thiophen-2-yl)-amide], the Ki was 97.7 nM.
`COc1ccc(-c2ccccc2)c2sc(NC(=O)N3CCN(C)CC3)cc12` [Example 7, 4-Methyl-piperazine-1-carboxylic acid (4-methoxy-7-phenyl-benzo[b]thiophen-2-yl)-amide]: the Ki is 240 nM.
In the case of `COc1ccc(-c2ccccc2)c2sc(NC(=O)c3ccc(C)nc3)cc12` [Example 8, N-(4-Methoxy-7-phenyl-benzo[b]thiophen-2-yl)-6-methyl-nicotinamide] it was 302 nM; in that of `COc1ccc(-c2ccccc2)c2sc(NC(=O)c3ccnc(C)c3)cc12` [Example 9, N-(4-Methoxy-7-phenyl-benzo[b]thiophen-2-yl)-2-methyl-isonicotinamide], 389 nM.
Consider `COc1ccc(-c2ccccc2)c2sc(NC(=O)c3ccc(F)cc3)cc12` [Example 10, 4-Fluoro-N-(4-methoxy-7-phenyl-benzo[b]thiophen-2-yl)-benzamide], for which the Ki is 43.7 nM.
